Legend:
UACC-62 = experiment: NCI 60-cell line growth inhibition assay; format: cell-based; settings: Homo sapiens; UACC-62 (Melanoma)
UO-31 = experiment: NCI 60-cell line growth inhibition assay; format: cell-based; settings: Homo sapiens; UO-31 (Renal)
SNB-75 = experiment: NCI 60-cell line growth inhibition assay; format: cell-based; settings: Homo sapiens; SNB-75 (CNS)
HCT-15 = experiment: NCI 60-cell line growth inhibition assay; format: cell-based; settings: Homo sapiens; HCT-15 (Colon)
SN12C = experiment: NCI 60-cell line growth inhibition assay; format: cell-based; settings: Homo sapiens; SN12C (Renal)
SK-MEL-2 = experiment: NCI 60-cell line growth inhibition assay; format: cell-based; settings: Homo sapiens; SK-MEL-2 (Melanoma)
COLO 205 = experiment: NCI 60-cell line growth inhibition assay; format: cell-based; settings: Homo sapiens; COLO 205 (Colon)
IGROV1 = experiment: NCI 60-cell line growth inhibition assay; format: cell-based; settings: Homo sapiens, IGROV-1; IGROV1 (Ovarian)
SF-268 = experiment: NCI 60-cell line growth inhibition assay; format: cell-based; settings: Homo sapiens; SF-268 (CNS)
MDA-MB-435 = experiment: NCI 60-cell line growth inhibition assay; format: cell-based; settings: Homo sapiens; MDA-MB-435 (Breast)
[1] = tested on: Tumor Cells in Hollow Fibers; experiment: NCI Hollow Fiber Assay (in vivo evaluation)
OVCAR-8 = experiment: NCI 60-cell line growth inhibition assay; format: cell-based; settings: Homo sapiens; OVCAR-8 (Ovarian)
NCI-H322M = experiment: NCI 60-cell line growth inhibition assay; format: cell-based; settings: Homo sapiens; NCI-H322M (Non-Small Cell Lung)
SF-295 = experiment: NCI 60-cell line growth inhibition assay; format: cell-based; settings: Homo sapiens; SF-295 (CNS)
NCI/ADR-RES = experiment: NCI 60-cell line growth inhibition assay; format: cell-based; settings: Homo sapiens; NCI/ADR-RES (Breast)
MCF7 = experiment: NCI 60-cell line growth inhibition assay; format: cell-based; settings: Homo sapiens; MCF7 (Breast)
KM12 = experiment: NCI 60-cell line growth inhibition assay; format: cell-based; settings: Homo sapiens; KM12 (Colon)
ACHN = experiment: NCI 60-cell line growth inhibition assay; format: cell-based; settings: Homo sapiens; ACHN (Renal)
NCI-H23 = experiment: NCI 60-cell line growth inhibition assay; format: cell-based; settings: Homo sapiens; NCI-H23 (Non-Small Cell Lung)
SNB-19 = experiment: NCI 60-cell line growth inhibition assay; format: cell-based; settings: Homo sapiens; SNB-19 (CNS)
HS 578T = experiment: NCI 60-cell line growth inhibition assay; format: cell-based; settings: Homo sapiens; HS 578T (Breast)
OVCAR-5 = experiment: NCI 60-cell line growth inhibition assay; format: cell-based; settings: Homo sapiens; OVCAR-5 (Ovarian)
HOP-62 = experiment: NCI 60-cell line growth inhibition assay; format: cell-based; settings: Homo sapiens; HOP-62 (Non-Small Cell Lung)
BT-549 = experiment: NCI 60-cell line growth inhibition assay; format: cell-based; settings: Homo sapiens; BT-549 (Breast)
MDA-N = experiment: NCI 60-cell line growth inhibition assay; format: cell-based; settings: Homo sapiens; MDA-N (Breast)
NCI-H522 = experiment: NCI 60-cell line growth inhibition assay; format: cell-based; settings: Homo sapiens; NCI-H522 (Non-Small Cell Lung)
TK-10 = experiment: NCI 60-cell line growth inhibition assay; format: cell-based; settings: Homo sapiens; TK-10 (Renal)
HL-60(TB) = experiment: NCI 60-cell line growth inhibition assay; format: cell-based; settings: Homo sapiens; HL-60(TB) (Leukemia)
EKVX = experiment: NCI 60-cell line growth inhibition assay; format: cell-based; settings: Homo sapiens; EKVX (Non-Small Cell Lung)
MOLT-4 = experiment: NCI 60-cell line growth inhibition assay; format: cell-based; settings: Homo sapiens; MOLT-4 (Leukemia)
RXF 393 = experiment: NCI 60-cell line growth inhibition assay; format: cell-based; settings: Homo sapiens; RXF 393 (Renal)
PC-3 = experiment: NCI 60-cell line growth inhibition assay; format: cell-based; settings: Homo sapiens; PC-3 (Prostate)
DU-145 = experiment: NCI 60-cell line growth inhibition assay; format: cell-based; settings: Homo sapiens; DU-145 (Prostate)
T-47D = experiment: NCI 60-cell line growth inhibition assay; format: cell-based; settings: Homo sapiens, T47D; T-47D (Breast)
RPMI-8226 = experiment: NCI 60-cell line growth inhibition assay; format: cell-based; settings: Homo sapiens; RPMI-8226 (Leukemia)
CCRF-CEM = experiment: NCI 60-cell line growth inhibition assay; format: cell-based; settings: Homo sapiens; CCRF-CEM (Leukemia)
MALME-3M = experiment: NCI 60-cell line growth inhibition assay; format: cell-based; settings: Homo sapiens; MALME-3M (Melanoma)
NCI-H460 = experiment: NCI 60-cell line growth inhibition assay; format: cell-based; settings: Homo sapiens; NCI-H460 (Non-Small Cell Lung)
SK-OV-3 = experiment: NCI 60-cell line growth inhibition assay; format: cell-based; settings: Homo sapiens; SK-OV-3 (Ovarian)
SK-MEL-5 = experiment: NCI 60-cell line growth inhibition assay; format: cell-based; settings: Homo sapiens; SK-MEL-5 (Melanoma)
CAKI-1 = experiment: NCI 60-cell line growth inhibition assay; format: cell-based; settings: Homo sapiens; CAKI-1 (Renal)

Row | SMILES | GI50 (UACC-62) | GI50 (UO-31) | GI50 (SNB-75) | GI50 (HCT-15) | GI50 (SN12C) | GI50 (SK-MEL-2) | GI50 (COLO 205) | GI50 (IGROV1) | GI50 (SF-268) | GI50 (OVCAR-8) | GI50 (NCI-H322M) | GI50 (SF-295) | GI50 (NCI/ADR-RES) | GI50 (MCF7) | GI50 (KM12) | GI50 (ACHN) | GI50 (NCI-H23) | GI50 (SNB-19) | GI50 (HS 578T) | GI50 (OVCAR-5) | further results
1 | CC(C)n1cnc2c(NCc3ccc(-c4ccsc4)cc3)nc(N[C@H]3CC[C@H](N)CC3)nc21 [Compound 12] | 27 nM | 63 nM | < 5 nM | 170 nM | < 5 nM | 9.6 nM | < 5 nM | 13 nM | < 5 nM | 7.6 nM | < 5 nM | 18 nM | 1260 nM | < 5 nM | < 5 nM | 39 nM | < 5 nM | 16 nM | < 5 nM | 17 nM | GI50 (MDA-MB-435): < 5 nM; Cell Types Killed [1]: MDA-MB-435; IP Score ([1]; IP fibers): 26; SC score ([1]; SC fibers): 4; GI50 (HOP-62): < 5 nM; GI50 (BT-549): 41 nM; GI50 (MDA-N): < 5 nM; GI50 (NCI-H522): < 5 nM; GI50 (TK-10): 10 nM; GI50 (HL-60(TB)): < 5 nM; GI50 (EKVX): 23 nM; GI50 (MOLT-4): < 5 nM; GI50 (RXF 393): < 5 nM; GI50 (PC-3): < 5 nM; GI50 (DU-145): 17 nM; GI50 (T-47D): 8.8 nM; GI50 (RPMI-8226): < 5 nM; GI50 (CCRF-CEM): < 5 nM
2 | CC[C@H](CO)Nc1nc(NCc2ccc(-c3cccc([N+](=O)[O-])c3)cc2)c2ncn(C(C)C)c2n1 [Compound 48] | 100 nM | < 10 nM | < 10 nM | 20 nM | 30 nM | 480 nM | 30 nM | 230 nM | < 10 nM | 100 nM | 30 nM | 240 nM | 120 nM | 250 nM | 20 nM | 250 nM | 70 nM | 20 nM | 30 nM | 160 nM | GI50 (MALME-3M): 130 nM; GI50 (NCI-H460): 250 nM; GI50 (SK-OV-3): 1380 nM; GI50 (HOP-62): 30 nM; GI50 (BT-549): 10 nM; GI50 (MDA-N): 20 nM; GI50 (NCI-H522): < 10 nM; GI50 (TK-10): 370 nM; GI50 (MOLT-4): 50 nM; GI50 (RXF 393): < 10 nM; GI50 (PC-3): 230 nM; GI50 (DU-145): 550 nM; GI50 (T-47D): 150 nM; GI50 (RPMI-8226): < 10 nM; GI50 (CCRF-CEM): 30 nM; GI50 (SK-MEL-5): 170 nM
3 | Cn1cnc2c(NCc3ccccc3)nc(NCCO)nc21 [Olomoucine, reference compound] | 32000 nM | 32000 nM | 25000 nM | 40000 nM | 100000 nM | 100000 nM | 32000 nM | 40000 nM | 50000 nM | 63000 nM | 63000 nM | 79000 nM | 100000 nM | 50000 nM | 40000 nM | 25000 nM | 79000 nM | 63000 nM | 63000 nM | 40000 nM | GI50 (MDA-MB-435): 63000 nM; GI50 (CAKI-1): 32000 nM; GI50 (MALME-3M): 100000 nM; GI50 (NCI-H460): 63000 nM; GI50 (SK-OV-3): 100000 nM; GI50 (HOP-62): 32000 nM; GI50 (BT-549): 79000 nM; GI50 (MDA-N): 79000 nM; GI50 (NCI-H522): 40000 nM; GI50 (TK-10): 63000 nM; GI50 (HL-60(TB)): 40000 nM; GI50 (EKVX): 100000 nM; GI50 (MOLT-4): 63000 nM; GI50 (RXF 393): 20000 nM; GI50 (PC-3): 100000 nM; GI50 (DU-145): 40000 nM; GI50 (T-47D): 63000 nM; GI50 (RPMI-8226): 50000 nM; GI50 (CCRF-CEM): 40000 nM; GI50 (SK-MEL-5): 40000 nM

Reference: patent publication US20030087906A1, “NITROGEN SUBSTITUTED BIARYL PURINE DERIVATIVES AS POTENT ANTIPROLIFERATIVE AGENTS” (priority 2001, published 2003)
